The values that follow come from ChEMBL document CHEMBL4765415 (Eur J Med Chem, 2020).

Each structure is given as a SMILES string. pIC50: −log10 of the molar value. Calls of active or inactive are those of the source. The rule behind the calls is not given here.

One may read the pIC50 as −log10 of the IC50, conventionally taken in molar units. By inhibition in vivo is commonly meant the percentage by which the read-out fell short of the control.

For data set [1], the system named is Mus musculus. Kind of data set: Analgesic activity in albino mouse assessed as inhibition of acetic acid-induced writhing at 10 mg/kg, po administered 1 hr prior to acetic acid challenge and measured after 5 to 15 mins relative to celecoxib. It counts as functional. The following applies: time 60-75 min.
The target of data set [2] is Prostaglandin G/H synthase 1 (Homo sapiens, UniProt P23219). The data set can be described thus: Inhibition of recombinant human COX1 using arachidonic acid as substrate preincubated for 5 mins followed by substrate addition and measured after 2 mins by Ellman's reagent based enzyme immunoassay. It is filed as ADME. (DTNB colorimetry detects thiols as they appear.)
The target of data set [3] is T1, Prostaglandin G/H synthase 2 (Homo sapiens, UniProt P35354).
T1 sequence (P35354 whole entry): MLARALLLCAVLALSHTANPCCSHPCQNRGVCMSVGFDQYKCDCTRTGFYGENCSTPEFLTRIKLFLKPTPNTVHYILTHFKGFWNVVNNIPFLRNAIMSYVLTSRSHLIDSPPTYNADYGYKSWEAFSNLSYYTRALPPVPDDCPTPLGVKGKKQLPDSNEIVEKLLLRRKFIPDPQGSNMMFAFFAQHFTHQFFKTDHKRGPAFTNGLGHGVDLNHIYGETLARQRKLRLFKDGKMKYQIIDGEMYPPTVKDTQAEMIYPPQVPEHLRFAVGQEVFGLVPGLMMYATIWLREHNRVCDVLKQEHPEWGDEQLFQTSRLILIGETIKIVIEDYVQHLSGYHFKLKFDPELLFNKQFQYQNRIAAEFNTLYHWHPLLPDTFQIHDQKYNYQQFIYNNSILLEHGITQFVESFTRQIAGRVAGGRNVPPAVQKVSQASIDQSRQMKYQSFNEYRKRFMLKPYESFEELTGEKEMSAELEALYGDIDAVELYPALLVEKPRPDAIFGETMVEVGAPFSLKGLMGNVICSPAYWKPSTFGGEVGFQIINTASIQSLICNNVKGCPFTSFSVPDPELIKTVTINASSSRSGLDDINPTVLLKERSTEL
The data set can be described thus: Inhibition of recombinant human COX2 using arachidonic acid as substrate preincubated for 5 mins followed by substrate addition and measured after 2 mins by Ellman's reagent based enzyme immunoassay. It counts as ADME.

A short description of data set [4]: Selectivity index, ratio of IC50 for recombinant human COX1 to recombinant human COX2.
The target of data set [5] is T2, Bifunctional epoxide hydrolase 2 (Homo sapiens, UniProt P34913).
T2 sequence (P34913 whole entry): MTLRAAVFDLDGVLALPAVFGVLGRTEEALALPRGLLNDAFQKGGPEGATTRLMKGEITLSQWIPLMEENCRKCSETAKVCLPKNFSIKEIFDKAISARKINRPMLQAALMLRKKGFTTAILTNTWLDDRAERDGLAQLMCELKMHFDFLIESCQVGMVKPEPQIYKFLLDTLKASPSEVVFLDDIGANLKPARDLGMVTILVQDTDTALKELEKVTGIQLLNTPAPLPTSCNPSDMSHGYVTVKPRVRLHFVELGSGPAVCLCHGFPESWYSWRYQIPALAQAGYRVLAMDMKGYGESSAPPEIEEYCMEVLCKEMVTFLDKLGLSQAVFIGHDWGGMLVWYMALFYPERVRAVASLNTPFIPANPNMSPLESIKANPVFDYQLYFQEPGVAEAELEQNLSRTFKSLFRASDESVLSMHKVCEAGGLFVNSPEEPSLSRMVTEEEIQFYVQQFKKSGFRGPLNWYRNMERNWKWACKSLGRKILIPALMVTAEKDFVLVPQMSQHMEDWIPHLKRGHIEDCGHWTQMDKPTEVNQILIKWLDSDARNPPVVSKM
The data set can be described thus: Inhibition of human sEH using epoxy flour 7 as substrate measured after 30 mins by cell-based fluorescence assay.

For data set [6], the system named is Mus musculus. Kind of data set: Analgesic activity in albino mouse assessed as inhibition of acetic acid-induced writhing at 10 mg/kg, po administered 1 hr prior to acetic acid challenge and measured after 5 to 15 mins relative to control. Particulars: time 60-75 min. It is filed as functional. For orientation: An intraperitoneal irritant provokes the stretching counted in writhing tests.

Data set [7] relates to Rattus norvegicus. The data set can be described thus: Antiinflammatory activity in albino rat model of carrageenan-induced paw edema assessed as inhibition of paw edema at 50 mg/kg, po administered 1 hr prior to carrageenan challenge and measured after 1 hr by Vernier caliper method relative to control. The following applies: time 2 hrs. It is filed as functional. In general terms: In the carrageenan paw model, swelling and tenderness develop within hours.

Data set [8] has as its system Rattus norvegicus. The data set can be described thus: Antiinflammatory activity in albino rat model of carrageenan-induced paw edema assessed as inhibition of paw edema at 50 mg/kg, po administered 1 hr prior to carrageenan challenge and measured after 3 hrs by Vernier caliper method relative to control. The following applies: time 4 hrs. It is filed as functional.

For data set [9], the system named is Rattus norvegicus. The data set can be described thus: Antiinflammatory activity in albino rat model of carrageenan-induced paw edema assessed as inhibition of paw edema at 50 mg/kg, po administered 1 hr prior to carrageenan challenge and measured after 5 hrs by Vernier caliper method relative to control. It counts as functional. Particulars: time 6 hrs.
Data set [10] concerns Rattus norvegicus. The data set can be described thus: Cardioprotective activity in celecoxib-induced cardiotoxicity in albino Wistar rat assessed as change in serum TNFalpha level at 100 mg/kg, po administered for 2 weeks and measured on day 15 by ELISA (reference value: 748.67 +/- 43.15 pg/ml). The following applies: time 15 day. It counts as functional.
The test system of data set [11] is Rattus norvegicus. The data set can be described thus: Cardioprotective activity in celecoxib-induced cardiotoxicity in albino Wistar rat assessed as change in serum troponin-I level at 100 mg/kg, po administered for 2 weeks and measured on day 15 by ELISA (reference value: 340 +/- 11.56 pg/ml). The following applies: time 15 day. It counts as functional.
Data set [12] has as its system Rattus norvegicus. The data set can be described thus: Cardioprotective activity in celecoxib-induced cardiotoxicity in albino Wistar rat assessed as change in serum LDH level at 100 mg/kg, po administered for 2 weeks and measured on day 15 by spectrophotometry (reference value: 2091.3 +/- 99.9 IU/L). Particulars: time 15 day. It counts as functional.
In data set [13] the test system is Rattus norvegicus. Kind of data set: Cardioprotective activity in celecoxib-induced cardiotoxicity in albino Wistar rat assessed as change in serum creatine kinase-MB level at 100 mg/kg, po administered for 2 weeks and measured on day 15 by spectrophotometry (reference value: 95.33 +/- 4 IU/L). It counts as functional. The following applies: time 15 day.
Data set [14] has as its system Rattus norvegicus. The data set can be described thus: Cardioprotective activity in celecoxib-induced cardiotoxicity in albino Wistar rat assessed as restoration of GSH level in cardiac tissue at 100 mg/kg, po administered for 2 weeks and measured on day 15. It is filed as functional, organism-based. Particulars: time 15.0 day.
Data set [15] can be described thus: Cardiotoxicity in albino Wistar rat assessed as change in serum PGI2 level at 100 mg/kg, po administered for 2 weeks and measured on day 15 by ELISA. It counts as toxicity, organism-based. The following applies: in vivo, 360 h, time 15 day.
For data set [16], the system named is Rattus norvegicus. Kind of data set: Cardioprotective activity in celecoxib-induced cardiotoxicity in albino Wistar rat assessed as restoration of serum PGI2 level at 100 mg/kg, po administered for 2 weeks and measured on day 15 by ELISA. It counts as functional, organism-based. The following applies: time 15.0 day.
Data set [17] deals with Rattus norvegicus. The data set can be described thus: Cardioprotective activity in celecoxib-induced cardiotoxicity in albino Wistar rat assessed as reduction in congestion in myocardium blood vessel at 100 mg/kg, po administered for 2 weeks and measured on day 15 by H and E staining based histopathological analysis. It is filed as functional, organism-based. Particulars: time 15.0 day.

Data set [18] deals with Rattus norvegicus. Kind of data set: Cardioprotective activity in celecoxib-induced cardiotoxicity in albino Wistar rat assessed as reduction in congestion in coronary artery at 100 mg/kg, po administered for 2 weeks and measured on day 15 by H and E staining based histopathological analysis. It is filed as functional, organism-based. Particulars: time 15.0 day.
The subject of data set [19] is Rattus norvegicus. Kind of data set: Cardioprotective activity in celecoxib-induced cardiotoxicity in albino Wistar rat assessed as reduction in edema in myocardium blood vessel at 100 mg/kg, po administered for 2 weeks and measured on day 15 by H and E staining based histopathological analysis. It counts as functional, organism-based. The following applies: time 15.0 day.

Data set [20] deals with Rattus norvegicus. The data set can be described thus: Cardioprotective activity in celecoxib-induced cardiotoxicity in albino Wistar rat assessed as reduction in edema in coronary artery at 100 mg/kg, po administered for 2 weeks and measured on day 15 by H and E staining based histopathological analysis. It counts as functional, organism-based. The following applies: time 15.0 day.

Sequence of Prostaglandin G/H synthase 1 (P23219 whole entry): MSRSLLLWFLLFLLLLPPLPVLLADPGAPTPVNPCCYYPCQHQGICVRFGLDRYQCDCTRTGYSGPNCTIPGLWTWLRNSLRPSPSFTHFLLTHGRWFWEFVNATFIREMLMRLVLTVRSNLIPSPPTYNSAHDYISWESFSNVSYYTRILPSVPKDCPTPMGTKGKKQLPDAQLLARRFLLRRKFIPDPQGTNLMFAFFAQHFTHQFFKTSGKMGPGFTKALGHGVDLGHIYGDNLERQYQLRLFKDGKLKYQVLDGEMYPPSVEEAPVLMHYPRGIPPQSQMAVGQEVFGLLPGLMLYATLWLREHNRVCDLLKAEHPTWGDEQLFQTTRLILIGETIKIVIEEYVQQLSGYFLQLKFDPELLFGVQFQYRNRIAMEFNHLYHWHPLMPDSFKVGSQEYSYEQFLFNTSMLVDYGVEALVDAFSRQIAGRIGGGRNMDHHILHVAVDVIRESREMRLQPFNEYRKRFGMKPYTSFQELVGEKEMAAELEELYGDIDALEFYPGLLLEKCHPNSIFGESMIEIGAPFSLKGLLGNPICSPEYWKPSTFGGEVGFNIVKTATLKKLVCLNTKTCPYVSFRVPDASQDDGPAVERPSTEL

On to `NS(=O)(=O)c1ccc(-n2nc(NC(=O)NC34CC5CC(CC(C5)C3)C4)cc2-c2ccccc2)cc1`, for which, in the data set with Mus musculus [1], the “fold change (FC)” value worked out at 1.83. Also, the pIC50 in data set [2] is 4.93; in data set [3] it was 5.73; in data set [5] it was 9.26. Besides, the “Ratio IC50” value in data set [4] stood at 6.41. For the same compound, in the data set with Mus musculus [6], the inhibition in vivo at 10 mg/kg amounted to 24.6%. Moreover, the inhibition in vivo at 50 mg/kg in the data set on Rattus norvegicus [7] is 62.2%; with Rattus norvegicus [8] it was 92%; in the data set on Rattus norvegicus [9] it was 93.8%. In addition, the Activity in the data set with Rattus norvegicus [10] was 322 pg/mL; in the data set with Rattus norvegicus [11] it was 150 pg/mL; in the data set with Rattus norvegicus [12] it was 1585 IU/L; in the data set with Rattus norvegicus [13], 22 IU/L; in data set [15], “Toxic”. In addition, the outcome in the data set with Rattus norvegicus [14], with Rattus norvegicus [16], in the data set on Rattus norvegicus [17], in the data set on Rattus norvegicus [18], with Rattus norvegicus [19] and in the data set with Rattus norvegicus [20] was Active.
For `NS(=O)(=O)c1ccc(-n2nc(NC(=O)NCCCC(=O)O)cc2-c2ccccc2)cc1`, the pIC50 in data set [5] is 8.40.
For `NS(=O)(=O)c1ccc(-n2nc(C(=O)NC34CC5CC(CC(C5)C3)C4)cc2-c2ccccc2)cc1`, in the data set on Mus musculus [1], the “fold change (FC)” value is 4.66. For the same compound, the pIC50 in [2] is 5.05; in data set [3], 5.67; in [5], 8.94. Moreover, the “Ratio IC50” value in [4] stood at 4.18. For the same compound, in the data set on Mus musculus [6], the inhibition in vivo at 10 mg/kg was 62.7%. Moreover, the figures for the inhibition in vivo at 50 mg/kg with Rattus norvegicus [7], in the data set on Rattus norvegicus [8] and in the data set on Rattus norvegicus [9] were 42%, 76.5% and 84.2%, respectively.
In data set [5], `NS(=O)(=O)c1ccc(-n2nc(C(=O)NCCCC(=O)O)cc2-c2ccccc2)cc1` gave a pIC50 of 8.74.
In [5], `NS(=O)(=O)c1ccc(-n2nc(NC(=O)NC3CCCCC3)cc2-c2ccccc2)cc1` had a negative-log IC50 (pIC50) of 9.01.
As for `Cc1ccc(-c2cc(C(F)(F)F)nn2-c2ccc(S(N)(=O)=O)cc2)cc1` [CELECOXIB], the inhibition in vivo at 10 mg/kg in the data set on Mus musculus [6] was found to be 13.4%. The inhibition in vivo at 50 mg/kg is 81.2% in the data set on Rattus norvegicus [7], 82.7% in the data set on Rattus norvegicus [8] and 88.3% in the data set with Rattus norvegicus [9]. Also, the Activity entry in data set [15] is given as “Toxic”.
`NS(=O)(=O)c1ccc(-n2nc(NC(=O)Nc3ccc(C(F)(F)F)cc3)cc2-c2ccccc2)cc1`: the pIC50 in [5] was 9.40.
The compound `NS(=O)(=O)c1ccc(-n2nc(NC(=O)NCCCCCCCCCCC(=O)O)cc2-c2ccccc2)cc1` showed a pIC50 in data set [5] of 8.80.
The compound `NS(=O)(=O)c1ccc(-n2nc(C(=O)Nc3ccc(C(F)(F)F)cc3)cc2-c2ccccc2)cc1` showed a pIC50 in [5] of 8.92.
Turning to `CCOC(=O)C1CCN(C(=O)Nc2cc(-c3ccccc3)n(-c3ccc(S(N)(=O)=O)cc3)n2)CC1`, the pIC50 in [5] was 8.76.
For `CCOC(=O)C1CCN(C(=O)c2cc(-c3ccccc3)n(-c3ccc(S(N)(=O)=O)cc3)n2)CC1`, the pIC50 in data set [5] was 8.79.
With `NS(=O)(=O)c1ccc(-n2nc(C(=O)NCCCCCCCCCCC(=O)O)cc2-c2ccccc2)cc1`, the pIC50 in data set [5] was 8.48.
As for `NS(=O)(=O)c1ccc(-n2nc(C(=O)NC3CCCCC3)cc2-c2ccccc2)cc1`, in data set [5], the pIC50 was 8.62.
